This is an account of results in patent US4210581A, “Organic compounds” (Sandoz Ltd., priority 1975, dated 1980).

One data set has as its system Aspergillus Niger. Put plainly: Activity against Aspergillus Niger. The format is cell-based. The source says:
Cyclosporin C may be isolated by chromatography as a compound active against Aspergillus Niger and having greater polarity than Cyclosporins A and B (designated S7481/F-1 and S7481/F-2 in the above mentioned D.O.S.).

In data set [1] the test system is antibodies formed against sheep erythrocytes. Description: Hemagglutination test (HAT). Format: in vivo. Particulars: mice, 100 to 200 mg/kg per os. As for the experimental part: (ii) in the hemagglutination test (HAT) in mice a stimulation of the antibodies formed against sheep erythrocytes is obtained at a dose of from 100 to 200 mg/kg per os. animal body weight;

Data set [2] in a line: Solubility at room temperature. The format is physicochemical.
Data set [3] deals with paralysis induced by experimentally induced nerve tissue damages. Put plainly: Experimental allergic encephalomyelitis (EAE) test. Format: in vivo. Particulars: rats, between 50 and 100 mg/kg/day.
Data set [4] deals with hemolytic plaque-forming cells. Put plainly: Jerne test (local hemolysis in gel). The format is in vivo. Particulars: mice, 50 to 200 mg/kg per os. The source says:
(i) in the Jerne test the effect of the substance on local hemolysis in gel is observed.

Data set [5] relates to Freund adjuvant arthritis swellings. Description: Freund adjuvant arthritis latent period test. Format: in vivo. The settings on record: rats, p.o., about 1 to about 10 mg/kg.
Data set [6] concerns skin grafts in H-2 histoincompatible mice. Put plainly: Skin transplantation (allograft) test. The format is in vivo. Particulars: 100 to 200 mg/kg per os.
Data set [7] relates to oxazolone skin hypersensitivity swelling. Put plainly: Oxazolone skin hypersensitivity reaction. The format is in vivo. The settings on record: mice, doses of 70 to 200 mg/kg.

On to `C/C=C/C[C@@H](C)[C@@H](O)[C@H]1C(=O)N[C@@H]([C@@H](C)O)C(=O)N(C)CC(=O)N(C)[C@@H](CC(C)C)C(=O)N[C@@H](C(C)C)C(=O)N(C)[C@@H](CC(C)C)C(=O)N[C@@H](C)C(=O)N[C@H](C)C(=O)N(C)[C@@H](CC(C)C)C(=O)N(C)[C@@H](CC(C)C)C(=O)N(C)[C@@H](C(C)C)C(=O)N1C` [Cyclosporin C, cyclosporin C], for which the “activity against Aspergillus Niger” value with Aspergillus Niger was “active”.

Consider dihydrocyclosporin C, for which the “stimulation of the antibodies formed against sheep erythrocytes” value in data set [1] was “stimulation”. For the same compound, the “solubility in organic solvents” value in data set [2] (benzene, dichloromethane, chloroform, ethyl acetate, acetone, ethanol and methanol) is “easily soluble”. Further, the solubility in water result in data set [2] (water) is reported as “difficulty soluble”. The incidence of paralysis result in data set [3] is “reduced significantly”. Further, the “stimulation of hemolytic plaque-forming cells (immunoglobulin M and G2a antibodies)” value in data set [4] is “significant stimulation”. Besides, the inhibition of swellings entry in data set [5] is listed as “inhibition of swellings”. For the same compound, in data set [6], the “prolongation in the period of survival of skin grafts” value was “significant prolongation”. Further, the inhibition of swelling entry in data set [7] is “significant and pronounced inhibition”.
